{"source": "patent US5648366A", "about": "“Substituted pyrrolidin-3-yl-alkyl-piperidines” (Merrell Pharmaceuticals Inc., priority 1995, dated 1997)", "biological_target": "T1, NK-3 receptor (Cavia porcellus, UniProt P30098)", "T1 construct": "freshly collected guinea pig cerebral cortex; from tissue; host or cells: guinea pig cerebral cortex membranes", "T1 sequence (P30098 1-440)": "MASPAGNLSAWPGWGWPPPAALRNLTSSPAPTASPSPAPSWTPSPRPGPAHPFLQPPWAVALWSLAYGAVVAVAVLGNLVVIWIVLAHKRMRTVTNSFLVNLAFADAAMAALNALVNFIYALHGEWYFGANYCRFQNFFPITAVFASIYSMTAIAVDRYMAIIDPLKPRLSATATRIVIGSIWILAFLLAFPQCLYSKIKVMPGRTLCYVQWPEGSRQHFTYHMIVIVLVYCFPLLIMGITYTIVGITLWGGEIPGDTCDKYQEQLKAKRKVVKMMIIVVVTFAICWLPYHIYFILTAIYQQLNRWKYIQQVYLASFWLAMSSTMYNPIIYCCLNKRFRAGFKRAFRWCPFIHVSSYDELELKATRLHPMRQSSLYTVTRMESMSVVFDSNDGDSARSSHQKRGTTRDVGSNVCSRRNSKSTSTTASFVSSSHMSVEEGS", "assay": "Antagonism of iodinated tachykinin (125I-eledoisin) binding to NK3 receptor in guinea pig cerebral cortex", "method": "ANTAGONISM OF IODINATED TACHYKININ BINDING TO NK1 AND NK2 RECEPTORS BY PUTATIVE ANTAGONISTS\nThe NK1 receptor affinity of proposed tachykinin antagonists was evaluated in guinea pig lungs (Keystone Biologicals, Cleveland, Ohio), affinity for the NK2 receptor evaluated in HSKR-1 cells (which are mouse 3T3 fibroblasts expressing the human jejunal NK2 receptor) and NK-3 receptor affinity was evaluated in freshly collected guinea pig cerebral cortex. Tissues or cells were homogenized with a Polytron in 15 volumes of 50 mM Tris-HCl buffer (pH 7.4, 4° C.) and centrifuged. The pellet was resuspended in Tris-HCl buffer and was centrifuged; the pellet was washed twice by resuspension. The final pellet was resuspended at a concentration of 40 mg/ml for tissues (guinea pig lung and cerebral cortex) and 20 mg/ml for cells in incubation buffer and remained at room temperature for at least 15 min prior to use. […] Filter bound radioactivity was quantitated in a gamma counter. […] Specific binding was calculated by subtracting nonspecific binding from total binding. Competition of iodinated SP, NKA, or eledoisin binding by test compounds or standards was expressed as a percentage of this maximum competition. […]", "data": [{"smiles": "COc1cc(C(=O)N2CCC(CCN3CCC(C(N)=O)(c4ccccc4)CC3)(c3ccc(Cl)c(Cl)c3)C2)cc(OC)c1OC", "note": "(stereo not shown) [Example 3, 1-[2-[3-(3,4-dichloro-phenyl)-1-(3,4,5-trimethoxy-benzoyl)-pyrrolidin-3-yl]-ethyl]-4-phenyl-piperidine-4-carboxylic acid amide]", "values": [{"measurement": "affinity for NK3 receptors (in words)", "result": "high affinity"}]}]}
